{"source": "patent US20080249034A1", "about": "“Use of Macrolides for Treating Intestinal Inflammation” (ZAMBON S.P.A., priority 2005, published 2008)", "test_system": "DNBS-induced colitis", "assay": "DNBS-induced colitis in rats, macroscopic damage score", "assay_type": "in vivo, rat", "details": "Sprague-Dawley rats, intrarectal DNBS on day 2, DNBS group score 10.7±0.4", "method": "Albino male Sprague-Dawley rats, 200-250 g body weight, were treated with intrarectal DNBS (2,4-dinitrobenzensufonic acid, 30 mg in 0.25 ml of 50% ethanol) under a light anaesthesia with diethyl ether. In control experiments, the animals received 0.25 ml of saline (NaCl 0.9%). Animals were subjected to subsequent experimental procedures 6 days after induction of colitis with DNBS (Blandizzi et al., Altered prejunctional modulation of intestinal cholinergic and noradrenergic pathways by alpha-2-adrenoceptors in the presence of experimental colitis. Br J Pharmacol 139, 309-320, 2003). […]\nAt the end of treatments, animals were sacrificed and the severity of colonic inflammation was macroscopically evaluated in accordance with the criteria previously reported by Wallace and Keenan (Wallace J L and Keenan C M, An orally active inhibitor of leukotriene synthesis accelerates healing in a rat model of colitis. Am J Physiol, 258, G527-G534, 1990) with minor modifications (Blandizzi, et al., 2003). Briefly, the macroscopic evaluation is based on the following criteria: presence of adhesions between the colon and other intra-abdominal organs; consistency of colonic faecal material (as an indirect marker of diarrhea); thickening of the colonic wall; presence and extension of hyperemia and macroscopic mucosal damage (assessed with the aid of a ruler) (FIG. 2). […]", "data": [{"smiles": "CC[C@H]1OC(=O)[C@H](C)[C@@H](O)[C@H](C)[C@@H](O[C@@H]2O[C@H](C)C[C@H](N(C)C(C)=O)[C@H]2O)C(C)(O)C[C@@H](C)[C@H](O)[C@H](C)[C@@H](O)[C@]1(C)O", "note": "(some centres unmarked) [macrolide]", "values": [{"measurement": "anti-inflammatory effect (change of macroscopic damage score)", "setting": "100 μmol/kg/day by intragastric gavage for 7 days", "value": "−24", "unit": "%"}, {"measurement": "anti-inflammatory effect (change of macroscopic damage score)", "setting": "300 μmol/kg/day by intragastric gavage for 7 days", "value": "−51", "unit": "%"}]}]}
